Source: patent US9192670B2, “Regulation of amyloid beta molecular composition for the treatment of alzheimer's disease” (Ramot at Tel-Aviv University Ltd., priority 2011, dated 2015)
Entries after “also recorded” stand apart in the source; their conditions may differ. Like-named read-outs stand apart in the source and are kept apart here.

Legend:
hippocampal slices = assay: Extracellular Aβ40/Aβ42 by sandwich ELISA in acute hippocampal slices stimulated by single spikes or spike bursts; format: cell-based, rat
CA3-CA1 connections [1] = assay: fEPSP/EPSC recordings in CA3-CA1 connections of hippocampal slices; format: cell-based, rat
rat hippocampal cultures = format: cell-based
[2] = test system: APP/PS1 hippocampal slices; assay: Extracellular Aβ40/Aβ42 by ELISA in APP/PS1 hippocampal slices, single spikes or spike bursts; format: cell-based, mouse
CA3-CA1 connections [3] = assay: fEPSP recordings in CA3-CA1 connections of human hippocampal slices; format: cell-based; details: RS-baclofen 20 μM
Experimental: (§1) Human slices were subjected to 1 hour stimulations by single spikes or spike bursts as described for experiments in rodents herein above (each burst contains 5 APs, inter-spike-interval 10 ms, inter-burst interval 5 s) in ACSF in the presence of 50 μM AP-5 for blocking postsynaptic excitatory NMDA receptors. Following stimulation, [Aβ40]o and [Aβ42]o in ACSF were measured by sandwich ELISA. Extracellularly recorded field EPSPs (fEPSPs) were used to assess short-term synaptic plasticity.

human cortical slices [4] = assay: Extracellular Aβ40/Aβ42 by ELISA in human cortical slices, single spikes or spike bursts; format: cell-based; details: RS-baclofen 20 μM
Experimental: as §1

human cortical slices [5] = assay: fEPSP recordings in human cortical slices; format: cell-based; details: RS-baclofen 20 μM
Experimental: as §1

CFP-PS1-YFP = format: cell-based, rat
APP = assay: Western blot of APP processing in APP/PS1 hippocampal slices; format: cell-based, mouse; details: APP/PS1 slices before and after pre-treatment with baclofen
Excerpt: Immunoblot Analysis. At the end of each stimulation, hippocampal slices were homogenized and prepared for the detection of full-length APP, soluble APP and APP-C terminal fragment (APP-CTF) by western blotting as described previously^18. Full length APP and soluble APP was probed using anti-APP 22C11 monoclonal antibody (Millipore, Temecula, Calif., 1:2000). In APP/PS1 slices, APP-bCTF was detected using 82E1 monoclonal antibody (IBL, Japan, 1:200). Both 22C11 and 82E1 probing were followed by goat anti-mouse HRP conjugated secondary antibody (Jackson ImmunoResearch, West Grove, Pa., 1:5000). APP-aCTF was detected using rabbit anti-APP-CTF antibody (Millipore, Temecula, Calif., 1:10,000) followed by goat anti-rabbit HRP conjugated secondary antibody (Jackson ImmunoResearch, West Grove, Pa., 1:5000). Following detection, blots were stripped with Restore™ Western Blot Stripping Buffer (Pierce, Thermo Scientific, Rockford, Ill.) and then re-probed with mouse anti-actin (SIGMA, Israel, 1:10,000) and HRP-conjugated goat anti-mouse (1:5000) antibodies as a loading control protein. All proteins were visualized by SuperSignal® West Pico Chemiluminescent (Pierce; Thermo Scientific, Rockford, Ill.). Densitometry was performed using the ImageJ Analysis software, and each band was normalized to its actin signal.

human hippocampal slices = assay: Extracellular Aβ40/Aβ42 by ELISA in human hippocampal slices, single spikes or spike bursts; format: cell-based; details: RS-baclofen 20 μM
Experimental: as §1

CA3-CA1 connections [6] = assay: fEPSP recordings in CA3-CA1 connections of APP/PS1 hippocampal slices; format: cell-based, mouse
[7] = in vivo; cited from earlier work
[8] = 20 mM gabazine, 1 h at 37° C., blocking GABAA receptors
[9] = baclofen 1 μM, 3 h, APP/PS1 slices

Compound: C[C@@H](NC(=O)c1cc(C(=O)N[C@@H](Cc2ccccc2)[C@H](O)CNC2CC2)cc(N(C)S(C)(=O)=O)c1)c1ccccc1 [BACE1 inhibitor IV]
- [Aβ40]o in pretreated slices (hippocampal slices): negligible
- [Aβ42]o in pretreated slices (hippocampal slices): negligible

Compound: [Cd] [cadmium]
- synaptic transmission (CA3-CA1 connections [1]): completely blocked
- Aβ40/42 pattern dependency (hippocampal slices): abolished
- Aβ40/42 ratio (hippocampal slices): decreased
- Aβ40 burst/single ratio (hippocampal slices): reduced
- [Aβ40]o reduced by, during single spikes (hippocampal slices): 67%
- [Aβ40]o reduced by, during spike bursts (hippocampal slices): 77%
- [Aβ42]o at either stimulation pattern (hippocampal slices): did not alter
- burst/single ratio of Aβ42 (hippocampal slices): did not affect

Compound: COc1ccc(-c2ccc(=N)n(CCCC(=O)O)n2)cc1 [gabazine]
- [Aβ40]o increased by (rat hippocampal cultures; [8]): 93.5%
- [Aβ42]o increased by (rat hippocampal cultures; [8]): 103%

Compound: C[C@H](NC[C@H](O)CP(=O)(O)CC1CCCCC1)c1ccc(Cl)c(Cl)c1 [CGP54626]
- burst/single ratio of fEPSP charge transfer per spike (QfEPSP) (CA3-CA1 connections [1]): reduced
- short-term synaptic facilitation during the burst (CA3-CA1 connections [1]): reduced
- slope of linear fit of input-output relationship (stimulation amplitude vs slope of fEPSP) (CA3-CA1 connections [1]): 1.13±0.06
- [Aβ40]o during single spikes (hippocampal slices): did not affect
- [Aβ40]o during spike bursts (hippocampal slices): reduced
- [Aβ42]o during either single spikes or bursts (hippocampal slices): did not affect
- difference between the Aβ40/42 ratio associated with single and burst patterns (hippocampal slices): abolished
- pattern dependency of Aβ40 (hippocampal slices): reduced
- pattern dependency of the Aβ40/42 ratio (hippocampal slices): reduced

Compound: NCC(CC(=O)O)c1ccc(Cl)cc1 (stereo not drawn) [baclofen]
- basal synaptic transmission (CA3-CA1 connections [1]): rescued
- burst/single ratio of fEPSP charge transfer per spike (QfEPSP) (CA3-CA1 connections [1]): rescued
- short-term facilitation (relative slopes of fEPSPs within the burst) (CA3-CA1 connections [1]): rescued
- slope of linear fit of input-output relationship (stimulation amplitude vs slope of fEPSP) (CA3-CA1 connections [1]): 0.77±0.02
- short-term synaptic facilitation during the burst (CA3-CA1 connections [1]; 3 h pre-incubation, CGP54626 10 μM in ACSF, baclofen 1 μM in ↑Ca/Mg-slices, recordings in normal ACSF): rescued
- total synaptic strength (CA3-CA1 connections [1]; pretreatment of hippocampal slices with baclofen for 3 h before electrical stimulation): did not alter
- Aβ40/42 ratio associated with burst patterns [2]: increased
- [Aβ40]o during single spikes [2]: did not affect
- [Aβ42]o during either single spikes or bursts [2]: did not affect
- burst/single ratio of Aβ42 [2]: did not affect
- pattern dependency of the Aβ40/42 ratio [2]: rescued
- reduction in the Aβ40 burst/single ratio [2]: rescued
- [Aβ40]o during bursts [2, 9]: increased
- short-term synaptic facilitation during the burst (CA3-CA1 connections [3]): increased
- Aβ42 pattern dependency (human cortical slices [4]): no effect
- burst pattern sensitivity of Aβ40 (human cortical slices [4]): increased
- pattern dependency of the Aβ40/42 (human cortical slices [4]): induced
- short-term synaptic depression (human cortical slices [5]): reduced
- FYFP/FCFP (FR) on changing stimulation pattern from single spikes to spike bursts (CFP-PS1-YFP): not affected
- burst/single ratio of FL-APP (APP): no significant differences
- burst/single ratio of βCTF (APP): no significant differences
- Aβ40/42 ratio during burst pattern of stimulation (human hippocampal slices): increased
- Aβ42 pattern dependency (human hippocampal slices): without affecting
- [Aβ42]o during either single- or burst stimulation pattern (human hippocampal slices): uniformly inhibited
- burst pattern sensitivity of Aβ40 (human hippocampal slices): increased
- pattern dependency of the Aβ40/42 (human hippocampal slices): induced
- [Aβ40]o (human hippocampal slices; stronger during single spikes): inhibited
- Aβ40/42 during periods of high-frequency burst firing (hippocampal slices): boosting
- Aβ40 pattern dependency (burst/single ratio) (hippocampal slices): rescued
- Aβ42 burst/single ratio (hippocampal slices): unaltered
- [Aβ40]o during spike bursts (hippocampal slices): increasing; also recorded: increased
- [Aβ42]o during either single spikes or bursts (hippocampal slices): did not affect
- difference between the Aβ40/42 ratio associated with single and burst patterns (hippocampal slices): restored
- pattern dependency of the Aβ40/42 ratio (hippocampal slices): restored
- pattern dependency of Aβ40 (hippocampal slices; 3 h pre-incubation, CGP54626 10 μM, baclofen 1 μM in ↑Ca/Mg-slices): rescued
- burst/single ratio of fEPSP charge transfer per spike (QfEPSP) (CA3-CA1 connections [6]): reversed
- slope of linear fit of input-output relationship (stimulation amplitude vs slope of fEPSP) (CA3-CA1 connections [6]): 0.95±0.06
- reduction in short-term synaptic facilitation by burst in APP/PS1 mice (CA3-CA1 connections [6]; [9]): reversed

Compound: OC[C@H]1O[C@@H](n2cnc3c(NC4CCCC4)nc(Cl)nc32)[C@H](O)[C@@H]1O [CCPA, 2-Chloro-N-cyclopentyladenosine]
- basal synaptic transmission (CA3-CA1 connections [1]): rescued
- burst/single ratio of fEPSP charge transfer per spike (QfEPSP) (CA3-CA1 connections [1]): rescued
- short-term facilitation (relative slopes of fEPSPs within the burst) (CA3-CA1 connections [1]): rescued
- slope of linear fit of input-output relationship (stimulation amplitude vs slope of fEPSP) (CA3-CA1 connections [1]): 0.49±0.03
- Aβ40/42 during periods of high-frequency burst firing (hippocampal slices): boosting
- Aβ40 pattern dependency (burst/single ratio) (hippocampal slices): rescued
- Aβ42 burst/single ratio (hippocampal slices): unaltered
- [Aβ40]o during single spikes (hippocampal slices): decreased
- [Aβ40]o during spike bursts (hippocampal slices): increasing
- pattern dependency of the Aβ40/42 ratio (hippocampal slices): restored

Compound: ω-conotoxin GVIA [ω-CgTx]
- basal synaptic transmission (CA3-CA1 connections [1]): rescued
- burst/single ratio of fEPSP charge transfer per spike (QfEPSP) (CA3-CA1 connections [1]): rescued
- short-term facilitation (relative slopes of fEPSPs within the burst) (CA3-CA1 connections [1]): rescued
- slope of linear fit of input-output relationship (stimulation amplitude vs slope of fEPSP) (CA3-CA1 connections [1]): 0.82±0.03
- Aβ40/42 during periods of high-frequency burst firing (hippocampal slices): boosting
- Aβ40 pattern dependency (burst/single ratio) (hippocampal slices): rescued
- Aβ42 burst/single ratio (hippocampal slices): unaltered
- [Aβ40]o during single spikes (hippocampal slices): decreased
- [Aβ40]o during spike bursts (hippocampal slices): increasing
- pattern dependency of the Aβ40/42 ratio (hippocampal slices): restored

Compound: CC(=O)OCOC(=O)CN(CCOCCOCCN(CC(=O)OCOC(C)=O)CC(=O)OCOC(C)=O)CC(=O)OCOC(C)=O [EGTA-AM]
- EPSCs evoked by single spikes reduced by (CA3-CA1 connections [1]): 20%
- burst/single ratio of EPSC charge transfer per spike (QEPSC) (CA3-CA1 connections [1]): lower
- synaptic facilitation of EPSCs reduced by (CA3-CA1 connections [1]): 70%
- Aβ40/42 pattern dependency (hippocampal slices): abolished
- Aβ40/42 ratio associated with burst patterns (hippocampal slices): decreased
- Aβ40 burst/single ratio (hippocampal slices): reduced
- [Aβ40]o during spike bursts (hippocampal slices): reduced
- [Aβ42]o during either single spikes or bursts (hippocampal slices): did not affect
- burst/single ratio of Aβ42 (hippocampal slices): did not affect

Compound: NC1=N[C@H](O)[C@H]2[C@H]3O[C@]4(O)O[C@@H]([C@@H](O)[C@@]2(N1)[C@@H]4O)[C@]3(O)CO [tetrodotoxin]
- elimination rate of total Aβ [7]: lack of TTX effect
- CFP-PS1-YFP FRET efficiency (CFP-PS1-YFP): did not change
- FYFP/FCFP (FR) (CFP-PS1-YFP): not affected
- [Aβ40]o reduced by (rat hippocampal cultures): 34%
- [Aβ42]o reduced by (rat hippocampal cultures): 31%
